Reference: patent US7820663B2, “Substituted enaminones, their derivatives and uses thereof” (The Regents of the University of California, priority 2005, dated 2010)

Row | SMILES | melting point
1 | Cc1cc(/C(=C/Nc2ccc(Cl)cc2)C(=O)Nc2ccc(Cl)cc2)no1 [Example 8, N-(4-Chlorophenyl)-α-[[4-(chlorophenyl)amino]methylene]-5-methyl-3-isoxazoleacetamide] | 179 to 180 °C
2 | CCOc1ccc(N/C=C(\C(=O)Nc2ccccc2)c2cc(C)no2)cc1 [Example 3, α-[[(4-Ethoxyphenyl)amino]methylene]-3-methyl-N-phenyl-5-isoxazoleacetamide] | 114 to 115 °C
